Patent publication US10370425B2, “Peptide antagonists of the calcitonin CGRP family of peptide hormones and their use” (priority 2012, dated 2019)
Positions of bridges follow the written chain, without caps; N, C: chain ends. Residues, ends and D or L forms follow the SMILES beside them.

Target: T1, amylin receptor, AMY1, a CT (calcitonin) receptor/RAMP1 (receptor-activity modifying protein) complex (Homo sapiens, UniProt O60894+P30988)
T1 construct: host or cells: CHO-K1/AMY1/Gα15
Test: Calcium flux assay (FLIPR Calcium 4) of inhibition of α-CGRP stimulation in CHO-K1/AMY1/Gα15 cells
Format: cell-based
Settings: at maximal test concentration (series starts with 1 μM); CHO-K1/AMY1/Gα15 cells stimulated with 32 nM (EC80) α-CGRP; n = 2; read-out: % Inhibition @ Maximal concentration (Mean +/− SD, n = 2)
Method: Using a calcium flux assay, the dose-dependent inhibitory response of peptide antagonists of the present invention on an amylin receptor, AMY1, a CT (calcitonin) receptor/RAMP1 (receptor-activity modifying protein) complex was determined. The recombinant cell line CHO-K1/AMY1/Gα15 (GenScript, Piscataway, N.J., Catalog No. M00475) was employed in the assay. Peptide antagonist activities were tested, in duplicate, at five different concentrations, starting with 1 μM and serially diluted five-fold, in DMSO. AC187 (SEQ ID NO: 55), a known amylin receptor antagonist (available for example from Tocris Bioscience, Minneapolis, Minn., Catalog No. 3419) was used as a positive control in the assays, and human α-CGRP, a known amylin receptor agonist (SEQ ID NO:56) , (available for example from Tocris Bioscience, Minneapolis, Minn., Catalog No. 3012) was used as a positive control in the assays. The FLIPR® Calcium 4 Assay Kit (Molecular Devices, Sunnyvale, Calif.) was used.
Human α-CGRP having the amino acid sequence, NH2-[…]-NH2 (SEQ ID NO:56) and AC187 having the sequence […] (SEQ ID NO: 55) were employed as negative and positive controls, respectively. Stock solutions were further diluted in HBSS-HEPES buffer to make 5×final control solutions.
CHO-K1/AMY1/Gα15 cells were seeded in a 384-well black wall, clear bottom plate at a density of 20,000 cells/well in 20 μL of growth medium 20 hours prior to the day of the experiment and maintained at 37° C./5% CO2.
Per the assay kit protocol, dye-loading solution (at 2×final concentration) was added into the assay plate, 20 μL per well. Compound solution (at 5 ×final concentration) was added into the assay plate, 10 uL per well. The assay plate was placed into a 37° C. incubator for 1 hour, then left for 15 min at RT. The agonist plate (at 5×EC80 concentration) was placed in Source 2. The total reading time was 120 sec. The agonist was added after 20 seconds reading of the baseline and the fluorescence signal was captured for another 100 seconds (21 s to 120 s).
In screening, cells stimulated with assay buffer were chosen as the background; cells stimulated with agonist (at […] concentration) were chosen as the negative control.
Data were recorded by ScreenWorks (version 3.1) as FMD files and stored on the GenScript computer network for off-line analysis. Data acquisition and analyses was performed using ScreenWorks (version 3.1) program and exported to Excel. The average value of 20 (1 s to 20 s) seconds reading was calculated as the baseline reading and the relative fluorescent units (ΔRFU) intensity values were calculated with the maximal fluorescent units (21 s to 120 s) subtracting the average value of baseline reading.
The IC50 value of AC187 was 8 μM. The inhibitory activity of the tested peptide antagonists was normalized with the negative control (AC187) and reported as % Inhibition, calculated from the following equation: % Inhibition=(ΔRFUcompound−ΔRFUBackground)/(ΔRFUNegative control−ΔRFUBackground) * 100% Inhibition was then plotted along the Y-axis, with the test concentrations as indicated on the X-axis. The peptides were tested at indicated concentrations and stimulated with 32 nM (EC80) α-CGRP (Mean +/− SD, n=2).

T1 sequence (P30988 25-474): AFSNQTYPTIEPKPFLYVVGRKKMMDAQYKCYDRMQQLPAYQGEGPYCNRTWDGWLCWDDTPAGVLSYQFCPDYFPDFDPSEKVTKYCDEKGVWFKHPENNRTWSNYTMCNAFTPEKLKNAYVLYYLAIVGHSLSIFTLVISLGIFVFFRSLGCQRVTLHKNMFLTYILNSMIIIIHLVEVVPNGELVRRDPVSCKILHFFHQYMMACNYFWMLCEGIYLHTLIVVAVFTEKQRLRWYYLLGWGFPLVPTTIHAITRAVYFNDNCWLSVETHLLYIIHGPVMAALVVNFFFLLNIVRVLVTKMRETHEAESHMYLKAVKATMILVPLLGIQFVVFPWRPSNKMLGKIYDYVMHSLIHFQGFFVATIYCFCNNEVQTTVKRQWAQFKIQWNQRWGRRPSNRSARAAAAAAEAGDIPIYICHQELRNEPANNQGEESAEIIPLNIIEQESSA
T1 sequence (O60894 27-148): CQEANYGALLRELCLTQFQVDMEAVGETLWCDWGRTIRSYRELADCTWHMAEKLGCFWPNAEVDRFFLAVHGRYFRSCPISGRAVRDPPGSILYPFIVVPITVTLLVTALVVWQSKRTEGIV

SMILES: CC(C)C[C@H](NC(=O)[C@H](CCCNC(=N)N)NC(=O)CNC(=O)[C@H](CC(C)C)NC(=O)[C@@H](NC(=O)[C@@H]1CSSC[C@H](N)C(=O)N[C@@H](CO)C(=O)N[C@@H](CC(N)=O)C(=O)N[C@@H]([C@@H](C)O)C(=O)N[C@@H](C)C(=O)N[C@@H](C(C)C)C(=O)N1)C(C)C)C(=O)N[C@@H](CO)C(=O)N[C@@H](CCC(N)=O)C(=O)N[C@@H](CCC(=O)O)C(=O)N[C@@H](CC(C)C)C(=O)N[C@@H](Cc1c[nH]cn1)C(=O)N[C@@H](CCCNC(=N)N)C(=O)N[C@@H](CC(C)C)C(=O)N[C@@H](CCC(N)=O)C(=O)N[C@H](C(=O)N[C@@H](Cc1ccc(O)cc1)C(=O)N1CCC[C@H]1C(=O)N[C@@H](CCCNC(=N)N)C(=O)N[C@H](C(=O)N[C@@H](CC(N)=O)C(=O)N[C@H](C(=O)NCC(=O)N[C@@H](CO)C(=O)N[C@@H](CCCCN)C(=O)N[C@@H](C)C(=O)N[C@@H](Cc1ccccc1)C(N)=O)C(C)C)[C@@H](C)O)[C@@H](C)O [compound 12] (H-CSNTAVCVLGRLSQELHRLQTYPRTNVGSKAF-NH2; disulfide 1-7 (inferred))
- inhibition at 1 µM: 96.1%
